Test results: US5948793A, “3-pyridyloxymethyl heterocyclic ether compounds useful in controlling neurotransmitter release” (Abbott Laboratories, priority 1995, dated 1999)
Structures can show the parent of a compound that is named as a salt. Where two headings read alike, the source gives them in different places.

Columns and labels:
[1] = target: neuronal nicotinic cholinergic channel receptors; experiment: [3H]-cytisine displacement binding to neuronal nicotinic cholinergic channel receptors; type: rat (crude synaptic membranes from whole rat brain); conditions: read-out: Receptor Binding Ki
Experimental: B. Protocol For Determination of Nicotinic Cholinergic Channel Receptor Binding Potencies of Ligands
Binding of [^3 H]-cytisine ([^3 H]-CYT) to nicotinic receptors was accomplished using crude synaptic membrane preparations from whole rat brain (Pabreza et al., Molecular Pharmaol., 1990, 39:9). Washed membranes were stored at -80° C. prior to use. Frozen aliquots were slowly thawed and resuspended in 20 volumes of buffer (containing: 120 mM NaCl, 5 mM KCl, 2 mM MgCl2, 2 mM CaCl2 and 50 mM Tris-Cl, pH 7.4 @4° C.). After centrifuging at 20,000×g for 15 minutes, the pellets were resuspended in 30 volumes of buffer. Homogenate (containing […]) was added to triplicate tubes containing concentrations of test compound and [^3 H]-CYT (1.25 nM) in a final volume of 500 μL. Samples were incubated for 60 minutes at 4° C., then rapidly filtered through Whatman GF/B filters presoaked in 0.5% polyethylimine using 3×4 mL of ice-cold buffer. The filters are counted in 4 mL of Ecolume® (ICN). […] Alternately, data were expressed as a percentage of the total specific binding.

[2] = tested on: nAChR evoked release of [3H]-dopamine, rat striatal slices; experiment: Striatal dopamine release assay (nAChR evoked release of [3H]-dopamine from superfused rat striatal slices); type: cell-based, rat (male Sprague-Dawley); conditions: Table 1, relative to 100 nM (-)-nicotine
Experimental: The protocol for this procedure follows below.
A. Protocol for Determination of Striatal Dopamine Release.
nAChR evoked release of [ring-2,5,6-^3 H]-dopamine (24.4 Ci/mmol) was measured in superfused rat striatal slices. Striata were dissected from two male Sprague-Dawley rats per experiment and sliced 0.35×0.25 mm by a McIlwain Tissue Chopper (Brinkman Instrument Co., Westbury, N.Y.). After two washes with Krebs-HEPES buffer (137 mM NaCl, 4.7 mM KCl, 1 mM MgSO4, 2.5 mM CaCl2, 1.25 mM NaH2 PO4, 10 mM glucose, 15 mM HEPES-NaOH, pH 7.4, containing 10 μM pargyline and 10 μM ascorbic acid), slices were preincubated for 10 minutes at 37° C. under 95%/5% O2 /CO2. After replacing the buffer, slices were labeled with 100 nM [^3 H]-dopamine for 25 min in Krebs-HEPES at 37° C. Aliquots of slices were placed in 18 superfusion chambers of a Brandel SP2000 superfusion apparatus (Brandel, Gaithersberg, Md.). Following 47 minutes of washout, slices were exposed to agonist at various concentrations for 4 minutes. Antagonists or inhibitors, when present were introduced 4 minutes prior to and during agonist exposure. Collected fractions were counted in 5 mL of Ecolume. Tissue was recovered from superfusion chambers, solubilized with 1 mL of Solvable™ (DuPont-NEN) and counted in 15 mL of Ecolume. Fractional release of [^3 H]-dopamine was calculated from radioactivity above baseline as a fraction of total radioactivity.

[3] = tested on: release of dopamine and acetylcholine; conditions: cited from earlier work
[4] = acutely- and chronically-administered; also observed in aged animals; cited from earlier work
[5] = in vivo; cited from earlier work
[6] = cited from earlier work
[7] = tested on: dopaminergic neurons; conditions: animals with induced brain injuries; cited from earlier work
[8] = tested on: heart; conditions: in vivo; cited from earlier work
[9] = transdermal patches; cited from earlier work
[10] = tested on: cholinergic ligand-gated channels, PC12 cells; experiment: Cholinergic channel activation in PC12 cells (whole-cell patch-clamp); type: cell-based
Text: D. Protocols for the Determination of Cholinergic Channel Activation in PC12 Cells.
The cholinergic channel activator properties of Example 9 were investigated in PC12 cells using the whole-cell patch-clamp approach to measure current flow through ligand-gated membrane channels.

[11] = example concentration *** = 0.1 μ
[12] = Table 1, [3H]-cytisine 1.25 nM, 60 min at 4° C.
[13] = example concentration * = 10 μM
[14] = example concentration ** = 1 μM

| Compound | Ki [1] [pM] | Ki [1, 12] [pM] | Dopamine Release relative to Nicotine [2, 13] | other results |
| --- | --- | --- | --- | --- |
| Cc1ccc(OC[C@@H]2CCCN2C)cn1.Cl.Cl [Example 19, 6-methyl-3-((1-methyl-2-(S)-pyrrolidinyl)methoxy)pyridine dihydrochloride] | 1470 |  |  | Dopamine Release relative to Nicotine [2, 11]: 0.78 |
| Cc1ccc(OC[C@@H]2CCN2C)cn1.Cl.Cl [Example 59, 3-((1-methyl-2-(S)-azetidinyl)methoxy)-6-methylpyridine dihydrochloride] |  | 4500 | 0.7 |  |
| CN1CCC[C@H]1COc1cccnc1.O=C(O)/C=C/C(=O)O [Example 4, 3-((1-methyl-2-(S)-pyrrolidinyl)methoxy)pyridine fumarate] | 200 |  | 1.0 |  |
| CN1CC[C@H]1COc1cccnc1.Cl.Cl [Example 10, 3-((1-methyl-2-(S)-azetidinyl)methoxy)pyridine dihydrochloride] | 250 |  | 1.0 |  |
| COC(=O)C(c1ccccc1)C1CCCCN1 (stereo not shown) [methylphenidate] |  |  |  | release of dopamine and acetylcholine [3]: enhance the release of dopamine and acetylcholine |
| C[C@H](N)Cc1ccccc1 [d-amphetamine] |  |  |  | release of dopamine and acetylcholine [3]: enhance the release of dopamine and acetylcholine |
| Cl.Cl.Clc1cncc(OC[C@H]2CCCN2)c1 [Example 33, 5-chloro-3-(2-(R)-pyrrolidinylmethoxy)pyridine dihydrochloride] |  | 200 |  | Dopamine Release relative to Nicotine [2, 14]: 0.62 |
| Cc1ccc(OC[C@H]2CCCN2)cn1.Cl.Cl [Example 37, 6-methyl-3-(2-(R)-pyrrolidinylmethoxy)pyridine dihydrochloride] | 500 |  | 0.8 |  |
| O=C(O)/C=C/C(=O)O.c1cncc(OC[C@@H]2CCCN2)c1 [Example 14, 3-(2-(S)-pyrrolidinylmethoxy)pyridine fumarate] | 140 |  |  | Dopamine Release relative to Nicotine [2, 14]: 1.0 |
| Cc1ccc(OC[C@@H]2CCCN2)cn1.Cl.Cl [Example 18, 6-methyl-3-(2-(S)-pyrrolidinylmethoxy)pyridine dihydrochloride] | 280 |  |  | Dopamine Release relative to Nicotine [2, 11]: 1.0 |
| CN1CC[C@H]1COc1cnccn1.Cl.Cl [Example 8, 2-((1-methyl-2-(S)-azetidinyl)methoxy)pyrazine dihydrochloride] |  | 33000 |  | Dopamine Release relative to Nicotine [2, 14]: 0.55 |
| CCN1CCC[C@H]1COc1cccnc1.Cl.Cl [Example 38, 3-((1-ethyl-2(S)-pyrrolidinyl)methoxy)pyridine dihydrochloride] | 13000 |  | 0.6 |  |
| CN1CCCC1c1cccnc1 (single isomer, unassigned; (-)) [(-)-nicotine] |  |  |  | release of dopamine and acetylcholine [3]: enhance the release of dopamine and acetylcholine; cognitive function [4]: enhances cognitive function in rats; sensory-gating impairments [5]: normalize sensory-gating impairments; oral bioavailability [6]: poor oral bioavailability; pre-synaptic loss of functional dopaminergic neurons [7]: can prevent pre-synaptic loss of functional dopaminergic neurons; cardiac workload and oxygen demand [8]: increasing cardiac workload and oxygen demand; symptoms of ADD [9]: improve the symptoms of ADD |
| CN1CCC[C@@H]1COc1cccnc1.Cl [Example 1, 3-((1-methyl-2-(R)-pyrrolidinyl)methoxy)pyridine hydrochloride] |  | 23000 | 0.08 |  |
| Cl.Cl.c1cncc(OC[C@@H]2CCN2)c1 [Example 9, 3-(2-(S)-azetidinylmethoxy)pyridine dihydrochloride] |  | 50 | 1.0 | cholinergic channel activator properties (current flow through ligand-gated channels) [10]: clear agonist activity |
| CN1CCC[C@H]1COc1cnc2ccccc2c1.Cl [Example 31, 3-(1-methyl-2-(S)-pyrrolidinylmethoxy)quinoline hydrochloride] |  | 700 | 0.15 |  |
| Cc1ccncc1OC[C@@H]1CCCN1C.Cl.Cl [Example 46, 4-methyl-3-((1-methyl-2-(S)-pyrrolidinyl)methoxy)pyridine dihydrochloride] |  | 4000 | 0.85 |  |
| Clc1ccc(OC[C@@H]2CCN2)cn1 [Example 52, 3-(2-(S)-azetidinylmethoxy)-6-chloropyridine dihydrochloride] |  | 40 | 1.0 |  |
